Results published in ChEMBL document CHEMBL4184141, “Investigating the Antibacterial Activity of Biphenylthiazoles against Methicillin- and Vancomycin-Resistant Staphylococcus aureus (MRSA and VRSA)” (J Med Chem, 2017).
Values after ≈ are worked out from the molar mass of the structure shown. Active and inactive are the calls of the source. No cut-off for these calls is given here.

Key:
Staphylococcus aureus [1] = assay: Antibacterial activity against methicillin-resistant Staphylococcus aureus 2658 RCMB up to 20 hrs by broth microdilution assay; assay type: functional
Staphylococcus aureus [2] = assay: Antibacterial activity against Staphylococcus aureus RN4220 up to 20 hrs by broth microdilution assay; assay type: functional; conditions: RN4220, 20 h
Staphylococcus aureus [3] = assay: Antibacterial activity against methicillin-resistant Staphylococcus aureus NRS119 up to 20 hrs by broth microdilution assay; assay type: functional; conditions: NRS119, 20 h
Staphylococcus aureus [4] = assay: Antibacterial activity against methicillin-resistant Staphylococcus aureus USA400 NRS123 up to 20 hrs by broth microdilution assay; assay type: functional; conditions: USA400 NRS123, 20 h
Staphylococcus aureus [5] = assay: Antibacterial activity against vancomycin-resistant Staphylococcus aureus VRS10 up to 20 hrs by broth microdilution assay; assay type: functional; conditions: VRS10, 20 h
Staphylococcus aureus [6] = assay: Antibacterial activity against vancomycin-resistant Staphylococcus aureus VRS11a up to 20 hrs by broth microdilution assay; assay type: functional
Staphylococcus aureus [7] = assay: Antibacterial activity against vancomycin-resistant Staphylococcus aureus VRS12 up to 20 hrs by broth microdilution assay; assay type: functional; conditions: VRS12, 20 h
Enterococcus faecium = assay: Antibacterial activity against vancomycin-resistant Enterococcus faecium ATCC 700221 up to 20 hrs by broth microdilution assay; assay type: functional; conditions: ATCC 700221, 20 h
Pseudomonas aeruginosa = assay: Antibacterial activity against Pseudomonas aeruginosa ATCC 15442 up to 20 hrs by broth microdilution assay; assay type: functional; conditions: ATCC 15442, 20 h
Staphylococcus aureus [8] = assay: Bactericidal activity against Staphylococcus aureus RN4220 up to 18 hrs by broth microdilution assay; assay type: functional; conditions: RN4220, 18 h, read-out: MBC99.9
Staphylococcus aureus [9] = assay: Bactericidal activity against methicillin-resistant Staphylococcus aureus NRS119 up to 18 hrs by broth microdilution assay; assay type: functional; conditions: NRS119, 18 h, read-out: MBC99.9
Staphylococcus aureus [10] = assay: Bactericidal activity against methicillin-resistant Staphylococcus aureus USA400 NRS123 up to 18 hrs by broth microdilution assay; assay type: functional; conditions: USA400 NRS123, 18 h, read-out: MBC99.9
Staphylococcus aureus [11] = assay: Bactericidal activity against vancomycin-resistant Staphylococcus aureus VRS10 up to 18 hrs by broth microdilution assay; assay type: functional; conditions: VRS10, 18 h, read-out: MBC99.9
Staphylococcus aureus [12] = assay: Bactericidal activity against vancomycin-resistant Staphylococcus aureus VRS11a up to 18 hrs by broth microdilution assay; assay type: functional; conditions: read-out: MBC99.9
Staphylococcus aureus [13] = assay: Bactericidal activity against vancomycin-resistant Staphylococcus aureus VRS12 up to 18 hrs by broth microdilution assay; assay type: functional; conditions: VRS12, 18 h, read-out: MBC99.9
Staphylococcus aureus [14] = assay: Potentiation of vancomycin-induced antibacterial activity against vancomycin-resistant Staphylococcus aureus VRS10 assessed as fold reduction in vancomycin MIC at 0.5 times MIC after 20 to 22 hrs; assay type: functional
Staphylococcus aureus [15] = assay: Antibacterial activity against methicillin-resistant Staphylococcus aureus USA300 infected in Caenorhabditis elegans AU37 harboring (sek-1(km4);glp-4(bn2)I) mutant assessed as reduction in bacterial burden at 20 ug/ml after 18 hrs by microscopic analysis relative to control; assay type: functional; parameters: scale not given: the % may be the effect or the level left
HRT-18 cell line [16] = assay: Cytotoxicity against human HRT18 cells up to 64 microg/ml after 6 hrs by MTS assay; assay type: cell-based; conditions: hrt-18, 6 h
Staphylococcus aureus [17] = assay: Synergistic antibacterial activity against vancomycin-resistant Staphylococcus aureus VRS10 after 20 hrs in presence of vancomycin by checkerboard assay; assay type: functional; conditions: VRS10, 20 h
Staphylococcus aureus [18] = assay: Potentiation of vancomycin-induced antibacterial activity against vancomycin-resistant Staphylococcus aureus VRS10 assessed as vancomycin MIC after 20 hrs by checkerboard assay; assay type: functional; conditions: VRS10, 20 h
Staphylococcus aureus [19] = assay: Potentiation of vancomycin-induced antibacterial activity against vancomycin-resistant Staphylococcus aureus VRS10 assessed as reduction in vancomycin MIC after 20 hrs by checkerboard assay; assay type: functional
[20] = Selectivity index, ratio of cytotoxic concentration for human HRT18 cells to MIC for methicillin-resistant Staphylococcus aureus; assay type: toxicity; conditions: read-out: Selectivity Index
Staphylococcus aureus [21] = assay: Potentiation of vancomycin-induced antibacterial activity against vancomycin-resistant Staphylococcus aureus VRS10 assessed as vancomycin MIC at 0.5 times MIC after 20 to 22 hrs (reference value: […] ug/mL); assay type: functional
HRT-18 cell line [22] = assay: Cytotoxicity against human HRT18 cells up to 128 microg/ml after 6 hrs by MTS assay; assay type: cell-based; conditions: hrt-18, 6 h
[23] = Half life in human liver microsomes in presence of NADPH by LC-MS/MS analysis; assay type: ADME, microsome
[24] = Intrinsic clearance in human liver microsomes in absence of NADPH by LC-MS/MS analysis; assay type: ADME, microsome; conditions: read-out: CLH
Staphylococcus aureus [25] = assay: Potency index, ratio of vancomycin MIC to compound MIC for antibacterial activity against vancomycin-resistant Staphylococcus aureus VRS10; assay type: functional
Staphylococcus aureus [26] = assay: Potency index, ratio of vancomycin MIC to compound MIC for antibacterial activity against vancomycin-resistant Staphylococcus aureus VRS11a; assay type: functional
Staphylococcus aureus [27] = assay: Potency index, ratio of vancomycin MIC to compound MIC for antibacterial activity against vancomycin-resistant Staphylococcus aureus VRS12; assay type: functional
Staphylococcus aureus [28] = assay: Bactericidal activity against methicillin-resistant Staphylococcus aureus USA300 assessed as time required to reduce bacterial load to 0 at 4 times MIC by time-kill assay; assay type: functional
[29] = Intrinsic clearance in human liver microsomes in presence of NADPH by LC-MS/MS analysis; assay type: ADME, microsome; conditions: read-out: CLH
[30] = Half life in human liver microsomes in absence of NADPH by LC-MS/MS analysis; assay type: ADME, microsome
[31] = Aqueous solubility of the compound in PBS after 2 hrs by turbidimetric method; assay type: physicochemical
[32] = Apparent permeability of the compound across basolateral side to apical side in human Caco2 cells by LC-MS/MS analysis; assay type: ADME, cell-based; conditions: Caco-2
[33] = Efflux ratio of permeability from basolateral to apical side over apical to basolateral side of human Caco2 cells by LC-MS/MS analysis; assay type: ADME, cell-based; conditions: Caco-2
HRT-18 cell line [34] = assay: Cytotoxicity against human HRT18 cells up to 32 microg/ml after 6 hrs by MTS assay; assay type: cell-based; conditions: hrt-18, 6 h
HRT-18 cell line [35] = assay: Cytotoxicity against human HRT18 cells at 64 microg/ml after 6 hrs by MTS assay; assay type: cell-based; conditions: hrt-18, 6 h

Cc1nc(-c2ccc(-c3ccccc3)cc2)sc1-c1ccnc(NN2CCN(C)CC2)n1
MIC (Staphylococcus aureus [1]): 0.78 mg/L (≈ 1.76 µM) | MIC (Staphylococcus aureus [2]): 4 mg/L (≈ 9.04 µM) | MIC (Staphylococcus aureus [3]): 4 mg/L (≈ 9.04 µM) | MIC (Staphylococcus aureus [4]): 4 mg/L (≈ 9.04 µM) | MIC (Staphylococcus aureus [5]): 8 mg/L (≈ 18.1 µM) | MIC (Staphylococcus aureus [6]): 8 mg/L (≈ 18.1 µM) | MIC (Staphylococcus aureus [7]): 8 mg/L (≈ 18.1 µM) | MIC (Enterococcus faecium): > 64 mg/L | MIC (Pseudomonas aeruginosa): > 64 mg/L | MBC (Staphylococcus aureus [8]): 8 mg/L (≈ 18.1 µM) | MBC (Staphylococcus aureus [9]): 4 mg/L (≈ 9.04 µM) | MBC (Staphylococcus aureus [10]): 4 mg/L (≈ 9.04 µM) | MBC (Staphylococcus aureus [11]): 8 mg/L (≈ 18.1 µM) | MBC (Staphylococcus aureus [12]): 8 mg/L (≈ 18.1 µM) | MBC (Staphylococcus aureus [13]): 8 mg/L (≈ 18.1 µM) | fold change (FC) (Staphylococcus aureus [14]): 128 | Activity (Staphylococcus aureus [15]): 46% | Activity (HRT-18 cell line [16]): Non-Toxic | MIC (Staphylococcus aureus [17]): 4 mg/L | MIC (Staphylococcus aureus [18]): 4 to 8 mg/L | fractional inhibitory concentration index (FICI) (Staphylococcus aureus [19]): 0.51 - 0.56 | selectivity ratio [20]: 16

Cc1nc(-c2ccc(-c3ccccc3)cc2)sc1-c1ccnc(N2CCN(C)CC2)n1
MIC (Staphylococcus aureus [1]): 6.25 mg/L (≈ 14.6 µM) | MIC (Staphylococcus aureus [5]): 32 mg/L (≈ 74.8 µM) | MIC (Staphylococcus aureus [21]): 1 mg/L | Activity (HRT-18 cell line [22]): Non-Toxic | MIC (Staphylococcus aureus [17]): 1 mg/L | MIC (Staphylococcus aureus [18]): 0.5 to 64 mg/L | fractional inhibitory concentration index (FICI) (Staphylococcus aureus [19]): 0.03 - 0.53

Cc1nc(-c2ccc(-c3ccccc3)cc2)sc1-c1ccnc(NC(=N)N2CCN(C)CC2)n1
half-life [23]: 2.52 h | microsomal CLint [24]: < 9.6 µL/min/mg | MIC (Staphylococcus aureus [1]): 0.39 mg/L (≈ 0.83 µM) | MIC (Staphylococcus aureus [2]): 2 mg/L (≈ 4.26 µM) | MIC (Staphylococcus aureus [3]): 2 mg/L (≈ 4.26 µM) | MIC (Staphylococcus aureus [4]): 1 mg/L (≈ 2.13 µM) | MIC (Staphylococcus aureus [5]): 4 to 8 mg/L (≈ 8.52 to 17 µM) | MIC (Staphylococcus aureus [6]): 4 mg/L (≈ 8.52 µM) | MIC (Staphylococcus aureus [7]): 2 mg/L (≈ 4.26 µM) | MIC (Enterococcus faecium): 16 mg/L (≈ 34.1 µM) | MIC (Pseudomonas aeruginosa): > 64 mg/L | MBC (Staphylococcus aureus [8]): 8 mg/L (≈ 17 µM) | MBC (Staphylococcus aureus [9]): 4 mg/L (≈ 8.52 µM) | MBC (Staphylococcus aureus [10]): 2 mg/L (≈ 4.26 µM) | MBC (Staphylococcus aureus [11]): 8 mg/L (≈ 17 µM) | MBC (Staphylococcus aureus [12]): 8 mg/L (≈ 17 µM) | MBC (Staphylococcus aureus [13]): 8 mg/L (≈ 17 µM) | Ratio (Staphylococcus aureus [25]): 100 | Ratio (Staphylococcus aureus [26]): 100 | Ratio (Staphylococcus aureus [27]): 8 | Time (Staphylococcus aureus [28]): 2 h | microsomal CLint [29]: 15.3 µL/min/mg | half-life [30]: > 4 h | solubility kinetic at 2 h [31]: 2.3 µM (≈ 1.08 µg/mL) | Papp B→A [32]: 17 nm/s | efflux ratio [33]: > 2 | Activity (Staphylococcus aureus [14]): inactive | Activity (Staphylococcus aureus [15]): 65% | Activity (HRT-18 cell line [34]): Non-Toxic | Activity (HRT-18 cell line [35]): Toxic | MIC (Staphylococcus aureus [17]): 0.13 mg/L | MIC (Staphylococcus aureus [18]): 128 to 256 mg/L | fractional inhibitory concentration index (FICI) (Staphylococcus aureus [19]): 1.02
